Reference: patent US20250154115A1, “ARYLBENZOISOXAZOLE COMPOUNDS AS IP6K AND IPMK INHIBITORS AND METHODS OF USE THEREOF” (THE UNIVERSITY OF NORTH CAROLINA AT CHAPEL HILL, priority 2022, published 2025)

Legend:
Assay type in all cases: biochemical
[1] = target: IP6K1 (Homo sapiens (Human), UniProt Q92551); test: Enzyme-coupled assay of IP6K1 activity (Dipp1-coupled, malachite green Pi release)
Procedure: (§1) […] The cells were disrupted using a constant cell disruption system (Constant Systems) under 20 kPsi.
(§2) Pi release was determined with a malachite green colorimetric assay.^45 Where indicated, TNP (Cayman Chemical) was added to the assays (FIG. 2A-E).

[2] = target: IP6K2 (Homo sapiens (Human), UniProt Q9UHH9); test: Enzyme-coupled assay of IP6K2 activity (Dipp1-coupled, malachite green Pi release)
Chain of IP6K2 (Q9UHH9 whole entry): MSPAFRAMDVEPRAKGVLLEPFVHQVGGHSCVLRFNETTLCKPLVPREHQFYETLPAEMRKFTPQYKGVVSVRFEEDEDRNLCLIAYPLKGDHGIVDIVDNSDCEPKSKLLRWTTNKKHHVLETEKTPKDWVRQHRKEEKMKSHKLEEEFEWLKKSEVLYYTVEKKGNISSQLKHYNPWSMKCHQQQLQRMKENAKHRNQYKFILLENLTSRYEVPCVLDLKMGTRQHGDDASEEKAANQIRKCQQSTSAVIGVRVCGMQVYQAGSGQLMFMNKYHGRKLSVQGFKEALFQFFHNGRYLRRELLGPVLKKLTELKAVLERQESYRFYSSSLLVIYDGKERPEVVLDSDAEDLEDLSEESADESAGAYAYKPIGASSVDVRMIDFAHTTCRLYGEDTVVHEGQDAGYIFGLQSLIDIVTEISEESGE
Procedure: as §1, §2

[3] = target: IPMK (Homo sapiens (Human), UniProt Q8NFU5); test: Enzyme-coupled assay, IPMK IC50
Chain of IPMK (Q8NFU5 whole entry, species assumed): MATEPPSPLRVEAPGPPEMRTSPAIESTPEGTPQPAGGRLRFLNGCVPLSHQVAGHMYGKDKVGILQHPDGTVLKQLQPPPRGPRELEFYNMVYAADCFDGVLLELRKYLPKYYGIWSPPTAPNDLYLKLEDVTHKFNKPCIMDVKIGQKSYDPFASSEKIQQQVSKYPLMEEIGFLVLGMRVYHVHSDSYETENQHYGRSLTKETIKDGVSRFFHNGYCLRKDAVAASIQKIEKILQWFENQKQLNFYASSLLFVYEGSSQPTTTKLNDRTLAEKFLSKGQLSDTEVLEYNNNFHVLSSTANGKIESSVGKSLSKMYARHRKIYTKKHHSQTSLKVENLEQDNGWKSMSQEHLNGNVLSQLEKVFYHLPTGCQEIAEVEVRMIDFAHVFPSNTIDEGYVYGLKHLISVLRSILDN

[4] = determined from enzyme-coupled assays

Chain of IP6K1 (Q92551 whole entry): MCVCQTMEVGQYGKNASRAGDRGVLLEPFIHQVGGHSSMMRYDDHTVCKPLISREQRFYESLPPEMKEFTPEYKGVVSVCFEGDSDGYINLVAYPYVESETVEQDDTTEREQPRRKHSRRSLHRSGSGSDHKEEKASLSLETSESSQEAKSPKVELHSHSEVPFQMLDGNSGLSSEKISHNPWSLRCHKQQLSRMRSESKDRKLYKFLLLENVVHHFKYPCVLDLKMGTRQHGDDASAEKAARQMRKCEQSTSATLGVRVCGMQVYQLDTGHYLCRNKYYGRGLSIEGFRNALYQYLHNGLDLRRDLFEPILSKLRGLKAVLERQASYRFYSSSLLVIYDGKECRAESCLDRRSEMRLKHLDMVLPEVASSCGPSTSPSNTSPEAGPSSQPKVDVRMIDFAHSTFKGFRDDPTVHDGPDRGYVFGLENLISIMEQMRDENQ

With `CC(C)C(=O)Nc1cccc(-c2onc3ccc(C(=O)O)cc23)c1` [Compound 50] the IC50 ([1]; enzyme-coupled assay, Table 2) was 1 to 100 µM, the IC50 ([2]; enzyme-coupled assay, Table 2) was 0.1 to 1 µM and the IC50 ([3]; enzyme-coupled assay, Table 2) was 0.1 to 1 µM.
Work on `CC(C)(C)OC(=O)N1CC(C(=O)N2CCC(c3cccc(-c4onc5ccc(-c6nnn[nH]6)cc45)c3)CC2)C1` [Compound 115] yielded an IC50 ([1]; enzyme-coupled assay, Table 4) of 0.1 to 1 µM.
For `CNC(=O)c1ccc2noc(-c3cccc(Oc4ncc(Cl)cc4Cl)c3)c2c1` [Compound 31], the IC50 ([1]; enzyme-coupled assay, Table 2) was 0.1 to 1 µM, the IC50 ([2]; enzyme-coupled assay, Table 2) was 0.1 to 1 µM and the IC50 ([3]; enzyme-coupled assay, Table 2) was 1 to 100 µM.
In the case of `O=C(O)c1ccc2noc(-c3ccc(NC(=O)C4CCNCC4)cc3)c2c1` [Compound 48], the IC50 ([1]; enzyme-coupled assay, Table 2) is reported as 1 to 100 µM, the IC50 ([2]; enzyme-coupled assay, Table 2) is reported as 1 to 100 µM and the “IPMK IC50” value ([3]; enzyme-coupled assay, Table 2) is reported as “−”.
With `c1cc(-c2onc3ccc(-c4nnn[nH]4)cc23)cc(C2CCN(C3CC4(CCC4)C3)CC2)c1` [Compound 113] the IC50 ([1]; enzyme-coupled assay, Table 4) was 0.1 to 1 µM.
`O=C(O)c1ccc2noc(-c3cccc(-c4cncc(O)c4)c3)c2c1` [Compound 53] was tested, and the IC50 ([1]; enzyme-coupled assay, Table 2) was 0.1 to 1 µM and the IC50 ([2]; enzyme-coupled assay, Table 2) was 0.1 to 1 µM.
`O=c1[nH]c(-c2ccc3noc(-c4cccc(OC5CCN(CC6CC6)CC5)c4)c3c2)no1` [Cmpd 132] was tested, and the IC50 [1, 4] was 0.1 to 1 µM, the IC50 [2, 4] was 0.1 to 1 µM and the IC50 [3, 4] was 0.01 to 0.1 µM.
In the case of `c1cc(-c2onc3ccc(-c4nnn[nH]4)cc23)cc(C2CCN(C3CCCC3)CC2)c1` [Compound 114], the IC50 ([1]; enzyme-coupled assay, Table 4) is reported as 0.1 to 1 µM.
In the case of `CC1(C(=O)N2CCC(c3cccc(-c4onc5ccc(-c6nnn[nH]6)cc45)c3)CC2)COC1` [Compound 108], the IC50 ([1]; enzyme-coupled assay, Table 4) is reported as 0.1 to 1 µM.
`CC1(C(=O)N2CCC(Oc3cccc(-c4onc5ccc(-c6noc(=O)[nH]6)cc45)c3)CC2)COC1` [Cmpd 139] was tested, and the IC50 [1, 4] was 0.1 to 1 µM, the IC50 [2, 4] was 0.01 to 0.1 µM and the IC50 [3, 4] was 0.1 to 1 µM.
For `O=C(Nc1ccc(-c2onc3ccc(-c4noc(=O)[nH]4)cc23)cc1)C1CCCC1` [Cmpd 130], the IC50 [1, 4] was < 0.01 µM, the IC50 [2, 4] was < 0.01 µM and the IC50 [3, 4] was 0.01 to 0.1 µM.
`O=c1[nH]c(-c2ccc3noc(-c4cccc(OC5CCN(C6CCC6)CC5)c4)c3c2)no1` [Cmpd 133] gave an IC50 [1, 4] of 0.1 to 1 µM, an IC50 [2, 4] of 0.1 to 1 µM and an IC50 [3, 4] of 0.01 to 0.1 µM.
`c1cc(OC2CCN(C3CCC3)CC2)cc(-c2onc3ccc(-c4nnn[nH]4)cc23)c1` [Compound 62] was tested, and the IC50 ([2]; enzyme-coupled assay, Table 4) was 0.1 to 1 µM and the IC50 ([3]; enzyme-coupled assay, Table 4) was 0.01 to 0.1 µM.
In the case of `O=C(N1CCC(c2cccc(-c3onc4ccc(-c5nnn[nH]5)cc34)c2)CC1)C1(F)CC1` [Compound 112], the IC50 ([1]; enzyme-coupled assay, Table 4) is reported as 0.01 to 0.1 µM.
`CN1CCC(Oc2cccc(-c3onc4ccc(-c5noc(=O)[nH]5)cc34)c2)CC1` [Cmpd 131] was tested, and the IC50 [1, 4] was 0.1 to 1 µM, the IC50 [2, 4] was 0.1 to 1 µM and the IC50 [3, 4] was 0.1 to 1 µM.
Work on `O=C(O)c1ccc2noc(-c3ccc(-c4cccnc4)cc3)c2c1` [Compound 57] yielded an IC50 ([3]; enzyme-coupled assay, Table 3) of 0.01 to 0.1 µM.
`CC1(C(=O)N2CCC(Oc3cccc(-c4onc5ccc(-c6nnn[nH]6)cc45)c3)CC2)COC1` [Compound 93] was tested, and the IC50 ([1]; enzyme-coupled assay, Table 4) was 0.1 to 1 µM and the IC50 ([2]; enzyme-coupled assay, Table 4) was 0.01 to 0.1 µM.
In the case of `O=C(Nc1ccc(-c2onc3ccc(-c4nnn[nH]4)cc23)cc1)[C@@H]1CCCN1` [Compound 100], the IC50 ([1]; enzyme-coupled assay, Table 4) is reported as 0.1 to 1 µM.
Work on `O=C(Nc1ccc(-c2onc3ccc(-c4nnn[nH]4)cc23)cc1)C1CCNCC1` [Compound 99] yielded an IC50 ([1]; enzyme-coupled assay, Table 4) of 0.1 to 1 µM.
For `CC1(COc2cccc(-c3onc4ccc(-c5nnn[nH]5)cc34)c2)COC1` [Cmpd 91], the IC50 ([1]; enzyme-coupled assay, Table 4) was 0.01 to 0.1 µM and the IC50 ([2]; enzyme-coupled assay, Table 4) was 0.01 to 0.1 µM.
`COc1ccc(-c2onc3ccc(/C=C/C(=O)O)cc23)cc1` [Compound 13] showed an IC50 ([1]; enzyme-coupled assay, Table 1) of 0.1 to 1 µM and an IC50 ([2]; enzyme-coupled assay, Table 1) of 1 to 100 µM.
`COc1ccc(COc2cncc(-c3cccc(-c4onc5ccc(C(=O)O)cc45)c3)c2)cc1` [Compound 52] was tested, and the IC50 ([1]; enzyme-coupled assay, Table 2) was 0.1 to 1 µM, the IC50 ([2]; enzyme-coupled assay, Table 2) was 0.1 to 1 µM and the IC50 ([3]; enzyme-coupled assay, Table 2) was 0.1 to 1 µM.
For `CCOC(=O)/C=C/c1ccc2noc(-c3ccccc3)c2c1` [Compound 7], the IC50 ([1]; enzyme-coupled assay, Table 1) was 1 to 100 µM and the IC50 ([2]; enzyme-coupled assay, Table 1) was 1 to 100 µM.
`CC(=O)N1CCC(c2ccc(-c3onc4ccc(-c5nnn[nH]5)cc34)cc2)CC1` [Compound 119] showed an IC50 ([1]; enzyme-coupled assay, Table 4) of 0.1 to 1 µM.
Work on `O=C(C1CC1)N1CCC(c2ccc(-c3onc4ccc(-c5nnn[nH]5)cc34)cc2)CC1` [Compound 122] yielded an IC50 ([1]; enzyme-coupled assay, Table 4) of 0.1 to 1 µM.
In the case of `O=c1[nH]c(-c2ccc3noc(-c4cccc(Oc5ncc(Cl)cc5Cl)c4)c3c2)no1` [Cmpd 127], the IC50 [1, 4] is reported as 0.01 to 0.1 µM, the IC50 [2, 4] is reported as 0.01 to 0.1 µM and the IC50 [3, 4] is reported as 0.01 to 0.1 µM.
With `O=C(Nc1ccc(-c2onc3ccc(-c4nnn[nH]4)cc23)cc1)C1CCCCC1` [Compound 98] the IC50 ([1]; enzyme-coupled assay, Table 4) was 0.1 to 1 µM.
`O=C(O)c1ccc2noc(-c3cccc(NC(=O)C4CCCC4)c3)c2c1` [Compound 49] was tested, and the IC50 ([1]; enzyme-coupled assay, Table 2) was 0.1 to 1 µM, the IC50 ([2]; enzyme-coupled assay, Table 2) was 0.1 to 1 µM and the IC50 ([3]; enzyme-coupled assay, Table 2) was 0.01 to 0.1 µM.
In the case of `c1cc2noc(-c3ccc(C4CCN(C5CCC5)CC4)cc3)c2cc1-c1nnn[nH]1` [Compound 118], the IC50 ([1]; enzyme-coupled assay, Table 4) is reported as 0.01 to 0.1 µM.
`CC(=O)N1CCC(c2cccc(-c3onc4ccc(-c5nnn[nH]5)cc34)c2)CC1` [Compound 106] was tested, and the IC50 ([1]; enzyme-coupled assay, Table 4) was 0.01 to 0.1 µM.
For `O=C(Nc1ccc(-c2onc3ccc(-c4nnn[nH]4)cc23)cc1)C1CCNC1` (stereo not drawn) [Compound 101], the IC50 ([1]; enzyme-coupled assay, Table 4) was 0.1 to 1 µM.
With `CC(C)(C)OC(=O)N1CCCC1C(=O)N1CCC(c2cccc(-c3onc4ccc(-c5nnn[nH]5)cc34)c2)CC1` (stereo not drawn) [Compound 116] the IC50 ([1]; enzyme-coupled assay, Table 4) was 0.1 to 1 µM.
